The source of these data is patent US11753445B2, “Therapeutic peptides” (COHBAR, INC., priority 2016, dated 2023).

Peptide text beside a SMILES is read from it.

In this experiment the test system is 3T3-L1 Adipocytes. In words: Free fatty acid levels in cultured mouse 3T3-L1 adipocytes, isoproterenol stimulated (Example 2). The experiment is classed as cell-based. As to conditions: test peptides 25 μM; isoproterenol 1 nM. As to the method: Mouse 3T3-L1 cells were seeded at a density between 1,000-20,000 cells per well on 96-well, 48-well, or 24-well plates in Pre-adipocyte Medium (Zen-Bio, Durham, N.C.) and grown to confluence at 37° C. in a humidified atmosphere of 5% CO2/95% air. Two days after confluence, cells were placed in Adipocyte Differentiation Medium (Zen-Bio, Durham, N.C.) and cultured for three additional days at 37° C. in a humidified atmosphere of 5% CO2/95% air. The culture media was then replaced with Adipocyte Maintenance Medium (Zen-Bio) and the cells were maintained for an additional 9-14 days at 37° C. in a humidified atmosphere of 5% CO2/95% air with partial medium replacement every other day. Following 12-17 days of differentiation, test peptides were added at a final concentration of 25 μM and incubated for 18-20 hours in Adipocyte Maintenance Medium at 37° C. in a humidified atmosphere of 5% CO2/95%. After 18-20 hours, the media was exchanged with fresh Adipocyte Maintenance Medium containing test peptides and incubated for 1 h at 37° C. in a humidified atmosphere of 5% CO2/95%. After 1 h media was exchanged with Assay Buffer (Zen-Bio) containing isoproterenol (1 nM) (added to all samples except untreated controls) and the test peptides. Cells were incubated for a further 3 hours at 37° C. in a humidified atmosphere of 5% CO2/95%. Free fatty acid concentrations in the media were determined using a Free Fatty Acid Assay Kit (Zen-Bio) according to the manufacturer's instructions using a plate reader (540 nm).
Absorbance values were corrected for untreated background and expressed relative to isoproterenol treated cells. Treatment with isoproterenol (1 nM) alone was used as the free fatty acid level stimulatory control. The relative standard deviation of the isoproterenol control was <10%. […] Free fatty acid levels for insulin (100 nM) treatment were <5% of the isoproterenol control value.
`CC[C@H](C)[C@H](NC(=O)[C@H](Cc1ccc(O)cc1)NC(=O)CNC(=O)[C@H](CCSC)NC(=O)[C@H](CCC(=O)O)NC(=O)[C@@H](C)NC(=O)[C@H](Cc1c[nH]c2ccccc12)NC(=O)[C@H](CCCNC(=N)N)NC(=O)[C@@H](N)CCSC)C(=O)N[C@@H](Cc1ccccc1)C(=O)N[C@@H](Cc1ccc(O)cc1)C(=O)N1CCC[C@H]1C(=O)N[C@@H](CCCNC(=N)N)C(=O)N[C@@H](CCCCN)C(=O)N[C@@H](CC(C)C)C(=O)N[C@@H](CCCNC(=N)N)C(=O)O` [compound 139] (HELM PEPTIDE1{M.R.W.[dA].E.M.G.Y.I.F.Y.P.R.K.L.R}$$$$V2.0): the “Free Fatty Acid Levels in 3T3-L1 Adipocytes Expressed as a Percent of Isoproterenol Control: Percent of Control Value” worked out at 58.1%.
For the compound `CC[C@H](C)[C@H](NC(=O)[C@H](Cc1ccc(O)cc1)NC(=O)CNC(=O)[C@H](CCSC)NC(=O)[C@@H](C)NC(=O)[C@H](CCC(N)=O)NC(=O)[C@H](Cc1c[nH]c2ccccc12)NC(=O)[C@H](CCCNC(=N)N)NC(=O)[C@@H](N)CCSC)C(=O)N[C@@H](Cc1ccccc1)C(=O)N[C@@H](Cc1ccc(O)cc1)C(=O)N1CCC[C@H]1C(=O)N[C@@H](CCCNC(=N)N)C(=O)N[C@@H](CCCCN)C(=O)N[C@@H](CC(C)C)C(=O)N[C@@H](CCCNC(=N)N)C(=O)O` [compound 140] (HELM PEPTIDE1{M.R.W.Q.[dA].M.G.Y.I.F.Y.P.R.K.L.R}$$$$V2.0), the “Free Fatty Acid Levels in 3T3-L1 Adipocytes Expressed as a Percent of Isoproterenol Control: Percent of Control Value” was found to be 60.8%.
Take `CC[C@H](C)[C@H](NC(=O)[C@H](Cc1ccc(O)cc1)NC(=O)CNC(=O)[C@@H](C)NC(=O)[C@H](CCC(=O)O)NC(=O)[C@H](CCC(N)=O)NC(=O)[C@H](Cc1c[nH]c2ccccc12)NC(=O)[C@H](CCCNC(=N)N)NC(=O)[C@@H](N)CCSC)C(=O)N[C@@H](Cc1ccccc1)C(=O)N[C@@H](Cc1ccc(O)cc1)C(=O)N1CCC[C@H]1C(=O)N[C@@H](CCCNC(=N)N)C(=O)N[C@@H](CCCCN)C(=O)N[C@@H](CC(C)C)C(=O)N[C@@H](CCCNC(=N)N)C(=O)O` [compound 141] (HELM PEPTIDE1{M.R.W.Q.E.[dA].G.Y.I.F.Y.P.R.K.L.R}$$$$V2.0): the “Free Fatty Acid Levels in 3T3-L1 Adipocytes Expressed as a Percent of Isoproterenol Control: Percent of Control Value” is on record as 56.9%.
Take `CC[C@H](C)[C@H](NC(=O)[C@H](Cc1ccc(O)cc1)NC(=O)[C@@H](C)NC(=O)[C@H](CCSC)NC(=O)[C@H](CCC(=O)O)NC(=O)[C@H](CCC(N)=O)NC(=O)[C@H](Cc1c[nH]c2ccccc12)NC(=O)[C@H](CCCNC(=N)N)NC(=O)[C@@H](N)CCSC)C(=O)N[C@@H](Cc1ccccc1)C(=O)N[C@@H](Cc1ccc(O)cc1)C(=O)N1CCC[C@H]1C(=O)N[C@@H](CCCNC(=N)N)C(=O)N[C@@H](CCCCN)C(=O)N[C@@H](CC(C)C)C(=O)N[C@@H](CCCNC(=N)N)C(=O)O` [compound 142] (HELM PEPTIDE1{M.R.W.Q.E.M.[dA].Y.I.F.Y.P.R.K.L.R}$$$$V2.0): the “Free Fatty Acid Levels in 3T3-L1 Adipocytes Expressed as a Percent of Isoproterenol Control: Percent of Control Value” is 31.9%.
Take `CC[C@H](C)[C@H](NC(=O)[C@@H](C)NC(=O)CNC(=O)[C@H](CCSC)NC(=O)[C@H](CCC(=O)O)NC(=O)[C@H](CCC(N)=O)NC(=O)[C@H](Cc1c[nH]c2ccccc12)NC(=O)[C@H](CCCNC(=N)N)NC(=O)[C@@H](N)CCSC)C(=O)N[C@@H](Cc1ccccc1)C(=O)N[C@@H](Cc1ccc(O)cc1)C(=O)N1CCC[C@H]1C(=O)N[C@@H](CCCNC(=N)N)C(=O)N[C@@H](CCCCN)C(=O)N[C@@H](CC(C)C)C(=O)N[C@@H](CCCNC(=N)N)C(=O)O` [compound 143] (HELM PEPTIDE1{M.R.W.Q.E.M.G.[dA].I.F.Y.P.R.K.L.R}$$$$V2.0): the “Free Fatty Acid Levels in 3T3-L1 Adipocytes Expressed as a Percent of Isoproterenol Control: Percent of Control Value” amounted to 64.5%.
As to `CSCC[C@H](NC(=O)[C@H](CCC(=O)O)NC(=O)[C@H](CCC(N)=O)NC(=O)[C@H](Cc1c[nH]c2ccccc12)NC(=O)[C@H](CCCNC(=N)N)NC(=O)[C@@H](N)CCSC)C(=O)NCC(=O)N[C@@H](Cc1ccc(O)cc1)C(=O)N[C@H](C)C(=O)N[C@@H](Cc1ccccc1)C(=O)N[C@@H](Cc1ccc(O)cc1)C(=O)N1CCC[C@H]1C(=O)N[C@@H](CCCNC(=N)N)C(=O)N[C@@H](CCCCN)C(=O)N[C@@H](CC(C)C)C(=O)N[C@@H](CCCNC(=N)N)C(=O)O` [compound 144] (HELM PEPTIDE1{M.R.W.Q.E.M.G.Y.[dA].F.Y.P.R.K.L.R}$$$$V2.0), the “Free Fatty Acid Levels in 3T3-L1 Adipocytes Expressed as a Percent of Isoproterenol Control: Percent of Control Value” was found to be 57.0%.
In the case of `CC[C@H](C)[C@H](NC(=O)[C@H](Cc1ccc(O)cc1)NC(=O)CNC(=O)[C@H](CCSC)NC(=O)[C@H](CCC(=O)O)NC(=O)[C@H](CCC(N)=O)NC(=O)[C@H](Cc1c[nH]c2ccccc12)NC(=O)[C@H](CCCNC(=N)N)NC(=O)[C@@H](N)CCSC)C(=O)N[C@H](C)C(=O)N[C@@H](Cc1ccc(O)cc1)C(=O)N1CCC[C@H]1C(=O)N[C@@H](CCCNC(=N)N)C(=O)N[C@@H](CCCCN)C(=O)N[C@@H](CC(C)C)C(=O)N[C@@H](CCCNC(=N)N)C(=O)O` [compound 145] (HELM PEPTIDE1{M.R.W.Q.E.M.G.Y.I.[dA].Y.P.R.K.L.R}$$$$V2.0), the “Free Fatty Acid Levels in 3T3-L1 Adipocytes Expressed as a Percent of Isoproterenol Control: Percent of Control Value” amounted to 50.2%.
Regarding `CC[C@H](C)[C@H](NC(=O)[C@H](Cc1ccc(O)cc1)NC(=O)CNC(=O)[C@H](CCSC)NC(=O)[C@H](CCC(=O)O)NC(=O)[C@H](CCC(N)=O)NC(=O)[C@H](Cc1c[nH]c2ccccc12)NC(=O)[C@H](CCCNC(=N)N)NC(=O)[C@@H](N)CCSC)C(=O)N[C@@H](Cc1ccccc1)C(=O)N[C@H](C)C(=O)N1CCC[C@H]1C(=O)N[C@@H](CCCNC(=N)N)C(=O)N[C@@H](CCCCN)C(=O)N[C@@H](CC(C)C)C(=O)N[C@@H](CCCNC(=N)N)C(=O)O` [compound 146] (HELM PEPTIDE1{M.R.W.Q.E.M.G.Y.I.F.[dA].P.R.K.L.R}$$$$V2.0), the “Free Fatty Acid Levels in 3T3-L1 Adipocytes Expressed as a Percent of Isoproterenol Control: Percent of Control Value” came out at 55.9%.
The figure for `CC[C@H](C)[C@H](NC(=O)[C@H](Cc1ccc(O)cc1)NC(=O)CNC(=O)[C@H](CCSC)NC(=O)[C@H](CCC(=O)O)NC(=O)[C@H](CCC(N)=O)NC(=O)[C@H](Cc1c[nH]c2ccccc12)NC(=O)[C@H](CCCNC(=N)N)NC(=O)[C@@H](N)CCSC)C(=O)N[C@@H](Cc1ccccc1)C(=O)N[C@@H](Cc1ccc(O)cc1)C(=O)N[C@H](C)C(=O)N[C@@H](CCCNC(=N)N)C(=O)N[C@@H](CCCCN)C(=O)N[C@@H](CC(C)C)C(=O)N[C@@H](CCCNC(=N)N)C(=O)O` [compound 147] (HELM PEPTIDE1{M.R.W.Q.E.M.G.Y.I.F.Y.[dA].R.K.L.R}$$$$V2.0) is 60.9%.
For `CC[C@H](C)[C@H](NC(=O)[C@H](Cc1ccc(O)cc1)NC(=O)CNC(=O)[C@H](CCSC)NC(=O)[C@H](CCC(=O)O)NC(=O)[C@H](CCC(N)=O)NC(=O)[C@H](Cc1c[nH]c2ccccc12)NC(=O)[C@H](CCCNC(=N)N)NC(=O)[C@@H](N)CCSC)C(=O)N[C@@H](Cc1ccccc1)C(=O)N[C@@H](Cc1ccc(O)cc1)C(=O)N1CCC[C@H]1C(=O)N[C@H](C)C(=O)N[C@@H](CCCCN)C(=O)N[C@@H](CC(C)C)C(=O)N[C@@H](CCCNC(=N)N)C(=O)O` [compound 148] (HELM PEPTIDE1{M.R.W.Q.E.M.G.Y.I.F.Y.P.[dA].K.L.R}$$$$V2.0) the value was 25.0%; for `CC[C@H](C)[C@H](NC(=O)[C@H](Cc1ccc(O)cc1)NC(=O)CNC(=O)[C@H](CCSC)NC(=O)[C@H](CCC(=O)O)NC(=O)[C@H](CCC(N)=O)NC(=O)[C@H](Cc1c[nH]c2ccccc12)NC(=O)[C@H](CCCNC(=N)N)NC(=O)[C@@H](N)CCSC)C(=O)N[C@@H](Cc1ccccc1)C(=O)N[C@@H](Cc1ccc(O)cc1)C(=O)N1CCC[C@H]1C(=O)N[C@@H](CCCNC(=N)N)C(=O)N[C@@H](CCCCN)C(=O)N[C@H](C)C(=O)N[C@@H](CCCNC(=N)N)C(=O)O` [compound 150] (HELM PEPTIDE1{M.R.W.Q.E.M.G.Y.I.F.Y.P.R.K.[dA].R}$$$$V2.0), 53.9%; for `CC[C@H](C)[C@H](NC(=O)[C@H](Cc1ccc(O)cc1)NC(=O)CNC(=O)[C@H](CCSC)NC(=O)[C@H](CCC(=O)O)NC(=O)[C@H](CCC(N)=O)NC(=O)[C@H](Cc1c[nH]c2ccccc12)NC(=O)[C@H](CCCNC(=N)N)NC(=O)[C@@H](N)CCSC)C(=O)N[C@@H](Cc1ccccc1)C(=O)N[C@@H](Cc1ccc(O)cc1)C(=O)N1CCC[C@H]1C(=O)N[C@@H](CCCNC(=N)N)C(=O)N[C@@H](CCCCN)C(=O)N[C@@H](CC(C)C)C(=O)N[C@H](C)C(=O)O` [compound 151] (HELM PEPTIDE1{M.R.W.Q.E.M.G.Y.I.F.Y.P.R.K.L.[dA]}$$$$V2.0), 47.9%.
